Data reported in paper PMC12651750 (Cells, 2025).
Read-outs that look alike come from different tables or passages of the source.

Assays:
[1] = biological target: T1, HDAC6 (Homo sapiens, UniProt Q9UBN7); test: In vitro HDAC enzymatic inhibition assay (HDAC kit, fluorescence)
T1 sequence (Q9UBN7 1-1215): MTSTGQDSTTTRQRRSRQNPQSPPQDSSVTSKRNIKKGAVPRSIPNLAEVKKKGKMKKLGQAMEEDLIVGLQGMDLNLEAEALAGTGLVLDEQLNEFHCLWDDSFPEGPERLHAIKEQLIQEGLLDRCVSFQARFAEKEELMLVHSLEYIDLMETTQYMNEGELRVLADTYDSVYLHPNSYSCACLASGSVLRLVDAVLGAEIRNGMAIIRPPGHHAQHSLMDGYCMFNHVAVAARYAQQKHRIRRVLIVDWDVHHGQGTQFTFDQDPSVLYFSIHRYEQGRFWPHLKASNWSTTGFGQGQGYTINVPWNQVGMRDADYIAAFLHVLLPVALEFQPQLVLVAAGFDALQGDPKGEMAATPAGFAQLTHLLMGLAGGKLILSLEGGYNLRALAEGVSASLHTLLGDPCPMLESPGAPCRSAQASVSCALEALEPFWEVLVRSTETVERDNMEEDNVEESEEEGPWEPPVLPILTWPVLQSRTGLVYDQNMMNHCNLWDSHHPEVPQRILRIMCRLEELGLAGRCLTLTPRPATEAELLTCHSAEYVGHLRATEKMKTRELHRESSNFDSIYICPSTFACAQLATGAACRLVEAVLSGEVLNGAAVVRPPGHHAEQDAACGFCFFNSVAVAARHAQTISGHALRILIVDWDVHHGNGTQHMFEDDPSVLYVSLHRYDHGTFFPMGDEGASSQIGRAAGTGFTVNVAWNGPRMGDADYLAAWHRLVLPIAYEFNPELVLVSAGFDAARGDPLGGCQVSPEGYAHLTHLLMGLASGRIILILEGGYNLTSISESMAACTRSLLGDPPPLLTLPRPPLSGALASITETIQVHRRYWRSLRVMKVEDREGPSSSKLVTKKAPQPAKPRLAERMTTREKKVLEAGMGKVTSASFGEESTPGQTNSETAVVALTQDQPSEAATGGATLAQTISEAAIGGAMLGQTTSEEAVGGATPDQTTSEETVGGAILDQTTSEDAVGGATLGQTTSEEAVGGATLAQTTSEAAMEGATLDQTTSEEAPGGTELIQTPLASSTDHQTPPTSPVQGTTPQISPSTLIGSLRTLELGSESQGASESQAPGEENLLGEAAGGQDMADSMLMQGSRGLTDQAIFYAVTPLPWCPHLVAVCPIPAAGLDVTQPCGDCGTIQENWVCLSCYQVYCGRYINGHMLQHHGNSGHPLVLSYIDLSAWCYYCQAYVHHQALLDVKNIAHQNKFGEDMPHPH
Experimental: Enzymatic assays were performed by Shanghai ChemPartner according to the HDAC kit protocol. […] Fluorescence was recorded at 355 nm excitation and 460 nm emission on a Synergy MX reader (PerkinElmer Life Sciences, Boston, MA, USA). IC50 values were derived from dose–response curves.

[2] = system: Jurkat cells; test: Annexin V-FITC/PI apoptosis assay (flow cytometry); type: cell-based, human; conditions: 48 h
Experimental: Apoptosis was assessed using an Annexin V-FITC Apoptosis Detection Kit according to the manufacturer’s instructions. Briefly, cells were double-stained with fluorescein isothiocyanate (FITC)-conjugated Annexin V and propidium iodide (PI). Jurkat cells were cultured to the appropriate density. Three sets of concentration gradients, namely 0.2 μM, 1 μM, and 5 μM, were established while DMSO was used as the control. The Jurkat cells were cultured for 48 h. Centrifuge at 1000× g for 5 min to precipitate the cells. We collected the cells, added the staining solution according to the instructions of the Annexin V-FITC Apoptosis Detection Kit to complete the staining, and immediately tested the cells on Flow cytometry.

[3] = system: Jurkat, human leukemic T cell line; test: Anti-proliferation MTT / CCK-8 assay; type: cell-based; conditions: 72 h; for IC50: Homo sapiens, Jurkat
Experimental: These cells were purchased from the National Collection of Authenticated Cell Cultures (Shanghai, China).
The concentration of the cell suspension was adjusted to the appropriate concentration with fresh medium (the number of cells was about 30–40% of the bottom area of the well plate). 150 μL (about 1 × 10^4 cells) of prepared cell suspension containing different concentrations of NBU-2 were added to a 96-microtiter plate, and 3 replicate wells were set up for each concentration. If the cells were adherent, the cells were first allowed to grow overnight in 96 microtiter plates until the cells were adherent, and then the old medium was replaced with the drug-containing medium. The plates were incubated in a 5% CO2 cell incubator at 37 °C for 72 h. Then, 15 μL of MTT solution was added to each well, 100 μL of 10% SDS solution (pH = 2) was added after 4 h, and the plate was incubated at 37 °C with 5% CO2 overnight to fully dissolve the crystals.
The cells (about 1 × 10^4 cells) were treated with different concentrations of NBU-2 and DMSO control for different times (24 h, 48 h, 72 h), with 3 replicate wells for each concentration. Incubate at 37 °C in a 5% CO2 cell culture incubator. After a predetermined time, 10 μL of CCK-8 was added to each well and incubated for 2 h. The absorbance was measured at the excitation wavelength of 450 nm.

[4] = system: Jurkat cells; test: Reactive oxygen species assay (DCFH-DA probe); type: cell-based, human; conditions: 0.2, 1, 5 µM, 48 h; concentration-dependent
Experimental: Cells were treated with 0.2 µM, 1 µM, 5 µM, and DMSO for 48 h. Then the probes were loaded using serum-free medium and incubated for 20 min at 37 °C in a cell incubator. Next, the cells were collected.

- IC50 [1]: 7.34 ± 0.6 nM
- IC50 ([3]; read-out: IC50 against Jurkat cells): 860 nM
- IC50 ([3]; read-out: IC50 proliferation Jurkat, heading: IC50 proliferation Jurkat, mean ± SEM of three independent assays): 860 ± 130 nM
Structure (SMILES): Cc1cccc2c(=O)c3c(NCCCCCC(=O)NO)ccc([N+](=O)[O-])c3[nH]c12 [NBU-2, N-hydroxy-6-((5-methyl-4-nitro-9-oxo-9,10-dihydroacridin-1-yl)amino)hexanamide]
- Percentage of cells in early apoptotic stage (Q3) ([2]; 0.2 μM): 11.5%
- Percentage of cells in early apoptotic stage (Q3) ([2]; 1 μM): 16.1%
- Percentage of cells in early apoptotic stage (Q3) ([2]; 5 μM): 84.7%
- Inhibitory effect on Jurkat cells over time ([3]; CCK-8, 24 h, 48 h, various concentrations): concentration and time-dependent
- Levels of reactive oxygen species relative to DMSO [4]: significantly increased
